Data as given in ChEMBL document CHEMBL3102729, “Synthesis, hypoglycemic activity and molecular modeling studies of pyrazole-3-carbohydrazides designed by a CoMFA model” (2013).

Legend:
Rattus norvegicus [1] = assay: Hypoglycemic activity in STZ-nicotinamide Wistar rat model of diabetes at 50 mg/kg administered intragastrically as single dose measured after 7 hrs relative to control; format: functional; conditions: route intragastric
Rattus norvegicus [2] = assay: Hypoglycemic activity in STZ-nicotinamide Wistar rat model of diabetes at 50 mg/kg administered intragastrically as single dose; format: functional, organism-based; parameters: dose 50 mg/kg; conditions: TDE = time-dependent effect

SMILES	Activity (Rattus norvegicus [1]) [%]	Activity (Rattus norvegicus [2])
Cc1c(C(=O)NN2CCCCC2)nn(-c2ccc(Cl)cc2Cl)c1-c1ccccc1	1.08	
Cc1c(C(=O)NN2CCCCC2)nn(-c2ccnc3cc(Cl)ccc23)c1-c1ccc(F)cc1	22.4	
Cc1c(C(=O)NN2CCCCC2)nn(-c2ccnc3cc(Cl)ccc23)c1-c1ccc(Cl)cc1	34.2	
Cc1c(C(=O)NN2CCCCC2)nn(-c2ccc(Cl)c(Cl)c2)c1-c1ccc(Cl)cc1	54.7	tde
Cc1c(C(=O)NN2CCCCC2)nn(-c2ccc(F)cc2F)c1-c1ccc(C(F)(F)F)cc1	54.2	
Cc1c(C(=O)NN2CCCCC2)nn(-c2ccc(Cl)cc2Cl)c1-c1ccc(Cl)cc1 [RIMONABANT]	25.4	
COc1ccc(Cl)cc1C(=O)NCCc1ccc(S(=O)(=O)NC(=O)NC2CCCCC2)cc1 [GLYBURIDE]	38	
Cc1c(C(=O)NN2CCCCC2)nn(-c2ccc(F)cc2F)c1-c1ccc(F)cc1	49.4	tde
Cc1c(C(=O)NN2CCCCC2)nn(-c2ccc(Cl)cc2Cl)c1-c1ccc(C(F)(F)F)cc1	43.9	
Cc1c(C(=O)NN2CCCCC2)nn(-c2ccc(C(F)(F)F)cc2)c1-c1ccc(Br)cc1	-2.4	
Cc1c(C(=O)NN2CCCCC2)nn(-c2ccc(F)c(Cl)c2)c1-c1ccc(F)cc1	58.7	tde
Cc1c(C(=O)NN2CCCCC2)nn(-c2ccc(F)c(Cl)c2)c1-c1ccc(Cl)cc1	33.6	
Cc1c(C(=O)NN2CCCCC2)nn(-c2ccccc2)c1-c1ccccc1	37.2	
Cc1c(C(=O)NN2CCCCC2)nn(-c2ccc(C(F)(F)F)cc2)c1-c1ccc(Cl)cc1	27.3	
